In patent publication US20230190887A1, “TARGETING G3BP AGGREGATION TO PREVENT NEURODEGENERATION” (priority 2019, published 2023):
“Also recorded” adds a separate entry of the source.

Legend:
[1] = test system: GFP^MYR/mCh^MYR translation reporters in DRG axons; test: FRAP of axonal translation reporters; assay type: cell-based, rat; settings: 10 μM peptide 30 min
Description: Fluorescence recovery after photobleaching (FRAP). FRAP was used to test for axonal mRNA protein synthesis using diffusion-limited GFP^MYR and mCherry^MYR reporters as described with minor modifications. In each case, DRG neurons were co-transfected with GFP^MYR 5′/3′nrn1+mCherry^MYR 5′/3′gap43 or GFP^MYR 5′/3′impβ1+mCherry^MYR5′/3′gap43 so that recovery of both reporters could be analyzed simultaneously. Cells were maintained at 37° C., 5% CO2 during imaging sequences. 488 nm and 514 nm laser lines on Leica SP8X confocal microscope were used to bleach GFP and mCherry signals, respectively (Argon laser at 70% power, pulsed every 0.82 s for 80 frames). Pinhole was set to 3 Airy units to ensure full thickness bleaching and acquisition (63×/1.4 NA oil immersion objective). Prior to photobleaching, neurons were imaged every 60 s for 2 min to acquire baseline fluorescence the region of interest (ROI; 15% laser power, 498-530 nm for GFP and 565-597 nm for mCherry emissions, respectively). The same excitation and emission parameters were used to assess recovery over 15 min post-bleach with images acquired at 30 s intervals. To determine if fluorescence recovery in axons was from translation, cultures were treated with 150 μg/ml cycloheximide (Sigma) or 100 μm anisomycin (Sigma) for 30 min prior to photobleaching for GFP^MYR 5′/3′nrn1+mCherry^MYR 5′/3′gap43 and GFP^MYR 5′/3′impβ1+mCh^MYR 5′/3′gap43 transfected DRGs, respectively. […] Photobleaching followed by analyses of recovery was performed after 30 min of peptide exposure.
For normalizing across experiments, fluorescence intensity value at t=0 min postbleach from each image sequence was set as 0%. The percentage of fluorescence recovery at each time point after photobleaching was then calculated by normalizing relative to the pre-bleach fluorescence intensity (set at 100%).

[2] = test system: G3BP1-mCherry aggregates in DRG axons; test: Live cell imaging of G3BP1-mCherry granules; assay type: cell-based, rat; settings: 10 μM peptide, 15 min
Description: Live cell imaging for G3BP1-mCherry granules. DRG neurons were transfected with G3BP1-mCherry, and 36 h later distal axons were imaged using Leica SP8X confocal microscope with environmental chamber maintained at 37° C., 5% CO2 (with 63×/1.4 NA oil immersion objective). G3BP1-mCherry signals were imaged as single optical planes in the axon shaft every 2 s for 100 frames (at 540 nm excitation and 23% white light laser power; 565-597 nm emission). To study the effect of the G3BP1 190-208 or 168-189 peptide, 10 μM FITC-conjugated peptide was added to the media and 15 min later imaging was continued.
For quantitation of G3BP1-mCherry aggregates density and size, a 100 μm of the axon shaft was considered (≥200 μm from cell body). Thresholding was applied to acquired image sequences using ImageJ to generate binary masks.
ImageJ particle analyzer was used for analysis. G3BP1 aggregates with area≥1 μm^2 were considered as SG-like structures. For analyzing the G3BP1 aggregate velocity, ImageJ Trackmate plug-in was used.

[3] = test system: G3BP1, TIA1, FMRP, FXR, TDP43 and FUS-TLS aggregates in E18 cortical neurons; test: RNA binding protein aggregates along axons of Aβ oligomer-treated cortical neurons; assay type: cell-based, rat; settings: 1 μM Aβ oligomer 2 hours, then peptide for additional 4 hours
Description: The data in FIGS. 13A-F and 14A-F raise the possibility that stress granule targeting therapies like the cell permeable G3BP1 190-208 peptide may decrease or even prevent loss of neurons across different types of neurodegenerative diseases. To address this possibility, the current disclosure asked if the cell permeable G3BP1 190-208 peptide could disassemble pathological protein aggregates in neurons. For this, 7 day cortical neuron cultures were treated with 1 μM A[…] oligomer for 2 hours and then treated with cell permeable G3BP1 190-208 peptide or a scramble sequence cell permeable peptide for an additional 4 hours. […] Thus, the cell permeable G3BP1 190-208 peptide can not only prevent RNA binding protein aggregation in axons after exposure to neurotoxins associated AD and PD, but it can also trigger disassembly of these pathological aggregates after they begin to form.
Representative confocal images for G3BP1. […] Quantifications for co:localization of FMRP, FXR, TDP43, FUS-TLS and TIA1 with G3BP1 in axons of E18 cortical neurons treated as in C are shown as average Pearson's coefficient±SEM (N≥120 aggregates over three repetitions and *p≤0.01, **p≤0.005, ***p≤0.001 for entire population distributions by Fishers exact test for FIG. 15B and FIG. 15D; […] neurons over 3 repetitions and *p≤0.01 **p≤0.005, ***p≤0.001 by one-way ANOVA with Tukey HSD post-hoc for FIG. 15E).

[4] = test system: motor neurons generated from human induced pluripotent stem cells; test: Neurite growth of hiPSC-derived motor neurons; assay type: cell-based; settings: 20 μM peptide, assessed 24 h later
Description: Human induced pluripotent stem cells (hiPSCs) were maintained in dishes coated with Matrigel (Corning) in Flex8 media (ThermoFisher). hiPSCs were differentiated into human motor neurons using a directed differentiation protocol optimized by Kevin Eggan. 7000 neurons/well were plated on laminin—or CSPG coated 96 well plates. 100 μl at 10 μg/ml Laminin (ThermoFisher) and 25 ng CSPGs (Millipore) were used per well.
For peptide treatments, 10 μM Tat-fused peptides were added to dissociated DRG cultures at 2 or 12 h after plating. Neurite outgrowth was assessed 24 h after addition of peptides. For the cortical cultures, 10 μM peptide was applied to the axonal compartment at 3 d in vitro (DIV) and axonal growth was assessed at 6 DIV. For iMotor neurons, 20 μM peptides were immediately added and neurite growth was assessed 24 h later.
For neurite outgrowth, images from 60 h DRG cultures were analyzed for neurite outgrowth using WIS-Neuromath. Axon morphology was visualized using GFP and/or NF immunofluorescence as described. Differentiated hiPSC neuron image acquisition and neurite length quantification was performed using Arrayscan XTI (Thermo Fisher).

## YGNKKNNNQNNN-VVEPEPEPEPEPEPEPVSE [G3BP1 190-208 peptide]
[1]; G3BP1 overexpression (G3BP1-BFP)
  axonal translation of GFP^MYR 5′/3′nrn1: reversed the decrease in axonal translation; also recorded: increased
[1]; G3BP1 overexpression
  axonal translation of GFP^MYR 5′/3′impβ1: did not rescue the decline in axonal translation
[1]; control conditions
  GFP^MYR 5′/3′impβ1 translation in axons: lack of effect
  mCh^MYR 5′/3′gap43 translation in axons: lack of effect
Primary MNs
  penetration into cell bodies and axons: penetration
[2]
  density of axonal G3BP1-mCherry aggregates along 100 μm axon: striking decrease
  motility of remaining G3BP1-mCherry aggregates: greater motility
  size of G3BP1-mCherry aggregates (SG-like structures): significantly smaller
[3]
  TIA1, FMRP, FXR, TDP43 and FUS-TLS colocalization with G3BP1: significantly decreased
  size of G3BP1, TIA1, FMRP, FXR, TDP43 and FUS-TLS aggregates along axons: significantly decreased size; also recorded: reduction in amyloid beta treatment dependent G3BP1-associated protein aggregates
[4]
  neurite length: significantly increased neurite length
